Assay results published in patent publication US6982285B2, “Control of parasites attached to skin of fish” (Novartis Animal Health US, Inc., priority 1999, dated 2006).

Legend:
[1] = system: sea lice; settings: in salt water (printed for trichlorfon); cited from earlier work
[2] = system: salmon louse; assay: In vivo preliminary test for activity against the salmon louse following manual injection; parameters: species or system salmon louse on Atlantic salmon; settings: naturally infected Atlantic salmon; single dose 40 mg fluazuron/kg body weight injected by hand into muscle tissue below dorsal fin; inspected 24, 48 and 72 hours later; at latest after 72 hours
Description: 1. In Vivo Preliminary Test for Activity Against the Salmon Louse Following Manual […]
20 naturally infected Atlantic salmon of various sizes from a fish farm are transferred to a well-aerated seawater aquarium for acclimatisation. They are left there for 3 days and fed daily with the usual food. On the fourth day, they are caught individually with a fish basket and quickly weighed. Each fish is injected by hand using an injection needle with a single dose, according to formulation example 1, of 40 mg fluazuron/kg body weight into the muscle tissue below the dorsal fin. The treated fish are returned to their aquarium.

[3] = system: salmon louse; assay: Semi-automated in vivo test for activity against the salmon louse (needleless inoculation gun); parameters: species or system salmon louse on Atlantic salmon; settings: Atlantic salmon artificially infected with 5 pre-adult, 5 adult female and 5 adult male salmon lice; 45 mg fluazuron/kg body weight, needleless inoculation gun below dorsal fin; after 24 hours
From the text: 2. Semi-Automated In Vivo Test for Activity Against the Salmon Louse.
Two well-aerated seawater aquariums, each of 5000 liter content, are set up parallel to one another at a distance of 2 m, with one being 10 cm higher than the other. The upper aquarium is provided with a kind of overflow which opens into a plexiglass channel which is open at the top and has a square inner cross-section of 10 cm. The upper end of this channel is secured by a movable grid and rests on the edge of the lower aquarium. Between the two aquariums, there is slight gradient. In the middle of the channel, two wire grids are attached with a 30 cm gap across the current, in such a way that they are either used as a water-permeable barrier or can be opened upwards on a hinge by a lever. At the bottom of the upper aquarium, there is an electrically controlled tail lift. When this is raised, the volume of water above it is diminished by reducing the depth of water. In addition, the upper aquarium contains a water feed which is secured by a grid and the lower aquarium has outlet holes. Water flows constantly from the upper to the lower aquarium. 200 Atlantic salmon of the same age are introduced into the upper aquarium and are each artificially infected with 5 pre-adult, 5 adult female and 5 adult male salmon lice. […]

Compound | concentration required / effective against sea lice [1] [ppm] | parasite infestation / number of surviving parasites [2] | parasite infestation / number of surviving parasites [3]
COP(=O)(OC)C(O)C(Cl)(Cl)Cl (stereo not shown) [trichlorfon, dimethyl-2,2,2-trichloro-1-hydroxyethyl-phosphonate] | 300 | – | –
O=C(NC(=O)c1c(F)cccc1F)Nc1ccc(Cl)c(Oc2ncc(C(F)(F)F)cc2Cl)c1 [fluazuron, 1-[4-chloro-3-(3-chloro-5-trifluoromethyl-2-pyridyloxy)phenyl]-3-(2,6-difluorobenzoyl)urea] | – | all the adult and pre-adult stages have been killed | all the female and male adults and pre-adult stages have been killed
COP(=O)(OC)OC=C(Cl)Cl [dichlorvos, 2,2-dichloroethenyl-dimethylphosphate] | ≥ 1 | – | –
